This note sets out measurements from patent publication US9133170B2, “Inhibitors of HCV NS5A” (priority 2011, dated 2015).

The test system of the test is GT-1a pRLuc H77 1b 75 S/I subgenomic replicon cell line. The test is described as follows: HCV GT-1a subgenomic replicon Renilla luciferase reporter assay. It counts as cell-based. Particulars: Hepatitis C virus, GT1A, Huh-7, 72 h, read-out: GT-1a-IC50. The text has this: Determination of compounds HCV GT1b inhibitory replicon activity using the replicon luciferase reporter assay
The 2209-23 cell line was developed at Roche by stable transfection of the hepatoma cell line Huh-7 with a GT-1b Con1 subgenomic bicistronic replicon as previously described. Subgenomic replicon cell line was established in cured Huh7 cells, obtained from R. Bartenschlager (J Virol. 2003 March; 77 (5):3007-19) The GT-1a H77 subgenomic replicon vector pRLuc H77 1b 75 S/I, was created by replacing the non structural region of the GT-1b Con1 subgenomic replicon by the one of the H77 strain, except for the first 75 amino acids of the NS3 protein that are from GT-1b Con1 strain. (J Virol. 2001 77:5352-59) The GT-1a pRLuc H77 1b 75 S/I subgenomic replicon cell line was established in cured Huh7 cells, obtained from R. Bartenschlager (J Virol. 2003 March; 77 (5):3007-19).
All the subgenomic replicon cell lines were cultured in Dulbecco's Modified Eagle Medium (DMEM-Glutamax™-I; Invitrogen Cat #10569-010). The medium was supplemented with 10% Fetal Bovine Serum (Invitrogen Cat #10082-147), 1% penicillin/streptomycin (Mediatech Cat # 30-002-CI) and 500 μg/ml of G418 (Mediatech Cat #30-234-CI). Cells were maintained at 37° C. in a humidified 5% CO2 atmosphere.
2209-23 cells were plated at a cell density of 5000 cells per well in 96 well plates (Becton Dickinson, Cat #35 3296). Cells were plated in 90 μl of Dulbecco's Modified Eagle Medium (DMEM-Glutamax™-I), (Invitrogen Cat #10569-010) medium was supplemented with 5% Fetal Bovine Serum (Invitrogen Cat #10082-147), 1% penicillin/streptomycin (Mediatech Cat #30-002-CI). The pRluc H77 1b 75 S/I cells were plated in 96-well plate at 3000 cells/well in DMEM-Glutamax™-I containing 5% FBS and 1% penicillin/streptomycin in 90 μl final volume. Cells were allowed to equilibrate for 24 hours at 37° C. and 5% CO2 at which time compounds were added. Compounds (or medium as a control) were added 24 hours post-plating in 3 fold dilutions at a final DMSO concentration of 1% in 10 ul volume. Renilla luciferase reporter signal was read 72 hours after addition of compounds using the Renilla Luciferase Assay System (Promega, cat #E2820). EC50 values were defined as the compound concentration at which a 50% reduction in the levels of renilla luciferase reporter was observed as compared to control samples in the absence of compound and was determined by non-linear fitting of compound dose-response data. The EC50 was approximated if maximum percentage inhibition was less than 90% and more than 70%.

Molecules are shown by their SMILES. pIC50: −log10 of the molar value.

Consider `COC(=O)N[C@H]1CCc2cccc3c2N(C1=O)[C@H](C(=O)N1CCC[C@H]1C(=O)Nc1ccc(-c2ccc(-c4[nH]c([C@@H]5CCCN5C(=O)[C@@H](NC(=O)OC)C(C)C)nc4Cl)cc2)cc1)C3` [Compound I-4, {(2S,5S)-2-[(S)-2-(4′-{5-Chloro-2-[(S)-1-((S)-2-methoxycarbonylamino-3-methyl-butyryl)-pyrrolidin-2-yl]-3H-imidazol-4-yl}-biphenyl-4-ylcarbamoyl)-pyrrolidine-1-carbonyl]-4-oxo-1,2,4,5,6,7-hexahydro-azepino[3,2,1-hi]indol-5-yl}-carbamic acid methyl ester], for which the negative-log IC50 (pIC50) is 8.86.
Turning to `COC(=O)N[C@H]1CCc2cccc3c2N(C1=O)[C@H](C(=O)N1CCC[C@H]1C(=O)Nc1ccc(-c2ccc(-c4cnc([C@@H]5CC(F)(F)CN5C(=O)[C@@H](NC(=O)OC)C(C)C)[nH]4)cc2)cc1)C3` [Compound I-3, {(2S,5S)-2-[(S)-2-(4′-{2-[(S)-1-((S)-2-Methoxycarbonylamino-3-methyl-butyryl)-4,4-difluoropyrrolidin-2-yl]-3H-imidazol-4-yl}-biphenyl-4-ylcarbamoyl)-pyrrolidine-1-carbonyl]-4-oxo-1,2,4,5,6,7-hexahydro-azepino[3,2,1-hi]indol-5-yl}-carbamic acid methyl ester], the negative logarithm of the IC50 (pIC50) was 6.83.
Regarding `COC(=O)N[C@H]1CCc2cccc3c2N(C1=O)[C@H](C(=O)N1CCC[C@H]1C(=O)Nc1ccc(-c2ccc(-c4cnc([C@@H]5CCCN5C(=O)[C@@H](NC(=O)OC)C(C)C)[nH]4)cc2)cc1)C3` [Compound I-1, {(2S,5S)-2-[(S)-2-(4′-{2-[(S)-1-((S)-2-Methoxycarbonylamino-3-methyl-butyryl)-pyrrolidin-2-yl]-3H-imidazol-4-yl}-biphenyl-4-ylcarbamoyl)-pyrrolidine-1-carbonyl]-4-oxo-1,2,4,5,6,7-hexahydro-azepino[3,2,1-hi]indol-5-yl}-carbamic acid methyl ester], the negative logarithm of the IC50 (pIC50) is 8.08.
On to `COC(=O)N[C@H](C(=O)N1CCC[C@H]1c1ncc(-c2ccc(-c3ccc(NC(=O)[C@@H]4CCCN4C(=O)[C@@H]4CCCN4C(=O)[C@H](NC(=O)OC)c4ccccc4)cc3)cc2)[nH]1)C(C)C` [Compound I-6, [(S)-1-((S)-2-{5-[4′-({(S)-1-[(S)-1-((R)-2-Methoxycarbonylamino-2-phenyl-acetyl)-pyrrolidine-2-carbonyl]-pyrrolidine-2-carbonyl}-amino)-biphenyl-4-yl]-1H-imidazol-2-yl}-pyrrolidine-1-carbonyl)-2-methyl-propyl]-carbamic acid methyl ester], for which the pIC50 was 7.16.
As for `COC(=O)N[C@H]1CCC(=O)N2CCC[C@@H](C(=O)N3CCC[C@H]3C(=O)Nc3ccc(-c4ccc(-c5cnc([C@@H]6CCCN6C(=O)[C@@H](NC(=O)OC)C(C)C)[nH]5)cc4)cc3)N2C1=O` [Compound I-2, {(4S,7S)-4-[(S)-2-(4′-{2-[(S)-1-((S)-2-Methoxycarbonylamino-3-methyl-butyryl)-pyrrolidin-2-yl]-3H-imidazol-4-yl}-biphenyl-4-ylcarbamoyl)-pyrrolidine-1-carbonyl]-6,10-dioxo-octahydro-pyridazino[1,2-a][1,2]diazepin-7-yl}-carbamic acid methyl ester], the pIC50 is 6.72.
Take `COC(=O)N[C@H](C(=O)N1CCC[C@H]1C(=O)N1CCC[C@H]1C(=O)Nc1ccc(-c2ccc(-c3cnc([C@@H]4CCCN4C(=O)[C@@H](NC(=O)OC)C(C)C)[nH]3)cc2)cc1)C(C)C` [Compound I-5, ((S)-1-{(S)-2-[(S)-2-(4′-{2-[(S)-1-((S)-2-Methoxycarbonylamino-3-methyl-butyryl)-pyrrolidin-2-yl]-3H-imidazol-4-yl}-biphenyl-4-ylcarbamoyl)-pyrrolidine-1-carbonyl]-pyrrolidine-1-carbonyl}-2-methyl-propyl)-carbamic acid methyl ester]: the negative-log IC50 (pIC50) is 8.31.
